Experimental data published in patent US10723692B2, “Lipids and lipid nanoparticle formulations for delivery of nucleic acids” (Acuitas Therapeutics, Inc., priority 2014, dated 2020).
Like-named read-outs stand apart in the source and are kept apart here.

Key:
[1] = pKa of formulated cationic lipids in lipid nanoparticles (TNS fluorescence assay); assay type: physicochemical
Experimental: As described elsewhere, the pKa of formulated cationic lipids is correlated with the effectiveness of LNPs for delivery of nucleic acids (see Jayaraman et al, Angewandte Chemie, International Edition (2012), 51(34), 8529-8533; Semple et al, Nature Biotechnology 28, 172-176 (2010)). The preferred range of pKa is ˜5 to ˜7. […] Lipid nanoparticles comprising of cationic lipid/DSPC/cholesterol/PEG-lipid (50/10/38.5/1.5 mol %) in PBS at a concentration of 0.4 mM total lipid are prepared using the in-line process as described in EXAMPLE 47. TNS was prepared as a 100 μM stock solution in distilled water. Vesicles were diluted to 24 μM lipid in 2 mL of buffered solutions containing, 10 mM HEPES, 10 mM MES, 10 mM ammonium acetate, 130 mM NaCl, where the pH ranged from 2.5 to 11. An aliquot of the TNS solution was added to give a final concentration of 1 μM and following vortex mixing fluorescence intensity was measured at room temperature in a SLM Aminco Series 2 Luminescence Spectrophotometer using excitation and emission wavelengths of 321 nm and 445 nm. A sigmoidal best fit analysis was applied to the fluorescence data and the pKa was measured as the pH giving rise to half-maximal fluorescence intensity (see FIG. 2).

[2] = tested on: luciferase expression in the liver; assay: In vivo luciferase mRNA expression rodent model (LNP, liver luciferase); parameters: species or system C57BL/6 mice; conditions: tail vein, liver 4 hours; for Liver Luc @ 0.3 mg/kg (ng luc/g liver): 0.3 mg mRNA/kg; for Liver Luc @ 1.0 mg/kg (ng luc/g liver): 1.0 mg mRNA/kg
Experimental: Cationic lipid (MC3), DSPC, cholesterol and PEG-lipid were solubilized in ethanol at a molar ratio of 50:10:38.5:1.5. Lipid nanoparticles (LNP) were prepared at a total lipid to mRNA weight ratio of approximately 10:1 to 30:1. Briefly, the mRNA was diluted to 0.2 mg/mL in 10 to 50 mM citrate buffer, pH 4. Syringe pumps were used to mix the ethanolic lipid solution with the mRNA aqueous solution at a ratio of about 1:5 to 1:3 (vol/vol) with total flow rates above 15 ml/min. The ethanol was then removed and the external buffer replaced with PBS by dialysis. Finally, the lipid nanoparticles were filtered through a 0.2 μm pore sterile filter. Lipid nanoparticle particle size was 70-90 nm diameter as determined by quasi-elastic light scattering using a Nicomp 370 submicron particle sizer (Santa Barbara, Calif.).
Studies were performed in 6-8 week old female C57BL/6 mice (Charles River) according to guidelines established by an institutional animal care committee (ACC) and the Canadian Council on Animal Care (CCAC). Varying doses of mRNA-lipid nanoparticle were systemically administered by tail vein injection and animals euthanized at specific time points (1, 2, 4, 8 and 24 hrs) post-administration. Liver and spleen were collected in pre-weighted tubes, weights determined, immediately snap frozen in liquid nitrogen and stored at −80° C. until processing for analysis.
For liver, approximately 50 mg was dissected for analyses in a 2 mL FastPrep tubes (MP Biomedicals, Solon Ohio). ¼″ ceramic sphere (MP Biomedicals) was added to each tube and 500 μL of Glo Lysis Buffer—GLB (Promega, Madison Wis.) equilibrated to room temperature was added to liver tissue. Liver tissues were homogenized with the FastPrep24 instrument (MP Biomedicals) at 2×6.0 m/s for 15 seconds. Homogenate was incubated at room temperature for 5 minutes prior to a 1:4 dilution in GLB and assessed using SteadyGlo Luciferase assay system (Promega). Specifically, 50 μL of diluted tissue homogenate was reacted with 50 μL of SteadyGlo substrate, shaken for 10 seconds followed by 5 minute incubation and then quantitated using a CentroXS^3 LB 960 luminometer (Berthold Technologies, Germany). The amount of protein assayed was determined by using the BCA protein assay kit (Pierce, Rockford Ill.). Relative luminescence units (RLU) were then normalized to total ug protein assayed. To convert RLU to ng luciferase a standard curve was generated with QuantiLum Recombinant Luciferase (Promega). Based in the data provided in FIG. 1, the four-hour time point was chosen for efficacy evaluation of the lipid formulations (see EXAMPLE 48).
The FLuc mRNA (L-6107) from Trilink Biotechnologies will express a luciferase protein, originally isolated from the firefly, Photinus pyralis. FLuc is commonly used in mammalian cell culture to measure both gene expression and cell viability. It emits bioluminescence in the presence of the substrate, luciferin. This capped and polyadenylated mRNA is fully substituted with 5-methylcytidine and pseudouridine.
The cationic lipids shown in Table 2 have previously been tested with nucleic acids. For comparative purposes, these lipids were also used to formulate lipid nanoparticles containing the FLuc mRNA (L-6107) using an in line mixing method, as described in EXAMPLE 47 and in PCT/US10/22614, which is hereby incorporated by reference in its entirety. Lipid nanoparticles were formulated using the following molar ratio: 50% Cationic lipid/10% distearoylphosphatidylcholine (DSPC)/38.5% Cholesterol/1.5% PEG lipid (“PEG-DMG”, i.e., (1-(monomethoxy-polyethyleneglycol)-2,3-dimyristoylglycerol, with an average PEG molecular weight of 2000). Relative activity was determined by measuring luciferase expression in the liver 4 hours following administration via tail vein injection as described in EXAMPLE 47. The activity was compared at a dose of 0.3 and 1.0 mg mRNA/kg and expressed as ng luciferase/g liver measured 4 hours after administration, as described in EXAMPLE 47. […]

[3] = tested on: hFIX protein in mouse plasma; assay: LNP delivery of human FIX mRNA, hFIX protein in mouse plasma by ELISA; assay type: in vivo; conditions: for Human Factor IX @ 0.3 mg/kg (ng mL in plasma): 0.3 mg/kg hFIX mRNA LNP; for Human Factor IX @ 0.3 mg/kg (ng mL in plasma) / Human Factor IX @ 1.0 mg/kg (ng mL in plasma): ELISA; for Human Factor IX @ 1.0 mg/kg (ng mL in plasma): 1.0 mg/kg hFIX mRNA LNP; for measured levels of hFIX expression (assessment): hFIX mRNA LNPs
Experimental: The LNPs with cationic lipids shown in Table 7 are formulated with mRNA coding for human FIX (e.g. TriLink Biotechnologies product L-6110) using the following molar ratio of lipids: 50% lipid/10% distearoylphosphatidylcholine (DSPC)/38.5% Cholesterol/1.5% PEG-lipid as described in EXAMPLE 47. Plasma protein is analyzed by ELISA using a commercially available kit (e.g. Abcam ab108831) as per the suppliers instructions. […] The duration of the hFIX at these levels is ˜15 hours or longer.

[4] = tested on: cherry red (CR) red fluorescent protein expression in liver; assay: LNP activity using cherry red (CR) mRNA, liver sections by confocal fluorescence microscopy; assay type: in vivo, C57BL/6 mice
Experimental: LNPs using compound 6 are formulated as described in EXAMPLE 47 with mRNA coding for a red fluorescent protein called cherry red (CR, e.g. TriLink Biotechnologies product L-6113). In vivo studies are conducted as described in EXAMPLE 47 and sections of liver tissue are processed and observed by confocal fluorescence microscopy at 4, 6 and 24 hours post administration. Expression levels peaked at around 6 hours and maintained to at least 24 hours.

[5] = Table 3, in LNP cationic lipid/DSPC/cholesterol/PEG-lipid 50/10/38.5/1.5 mol %, read-out: pKa
[6] = Table 3, LNP with 1.5% PEG-DMA (42-6), FLuc mRNA
[7] = Table 5, LNP with 1.5% PEG-lipid (42-6)
[8] = Table 6, LNP with 1.5% PEG-lipid (42-6)

| SMILES | pKa [1, 5] | Liver Luc @ 0.3 mg/kg (ng luc/g liver) [2, 6] | Liver Luc @ 1.0 mg/kg (ng luc/g liver) [2, 6] | other results |
| --- | --- | --- | --- | --- |
| CCCCCCCCC(CCCCCC)C(=O)OCCCCCCCCCN(CCCCCCCCCOC(=O)C(CCCCCC)CCCCCCCC)CCN(C)C (stereo not drawn) [Compound 6] | 6.12 | 2015 ± 135 ng luc/g liver | 16006 ± 2487 ng luc/g liver | pKa ([1]; Table 5, in LNP): 6.12; pKa ([1]; Table 6, in LNP): 6.12; Liver Luc @ 0.3 mg/kg (ng luc/g liver) [2, 7]: 2015 ± 135 ng luc/g liver; Liver Luc @ 1.0 mg/kg (ng luc/g liver) [2, 7]: 16006 ± 2487 ng luc/g liver; Liver Luc @ 0.3 mg/kg (ng luc/g liver) [2, 8]: 2015 ± 135 ng luc/g liver; Liver Luc @ 1.0 mg/kg (ng luc/g liver) [2, 8]: 16006 ± 2487 ng luc/g liver; time of peak expression levels ([4]; liver sections observed at 4, 6 and 24 hours post administration): around 6 hours; distribution of expression in tissue sections ([4]; liver sections, confocal fluorescence microscopy): homogeneous expression throughout the liver; expression maintained to ([4]; liver sections, post administration): at least 24 hours; Human Factor IX @ 0.3 mg/kg (ng mL in plasma) [3]: 713 ± 148 ng·mL; Human Factor IX @ 1.0 mg/kg (ng mL in plasma) [3]: 2697 ± 345 ng·mL; measured levels of hFIX expression (assessment) [3]: clinically relevant |
| CCCCCCCCCCC(CCCCCCCC)COC(=O)CCCCCN(CCCCCC(=O)OCC(CCCCCCCC)CCCCCCCCCC)CCN1CCCC1 (stereo not drawn) [Compound 31] | 6.33 | 344 ± 160 ng luc/g liver | 4103 ± 1073 ng luc/g liver | – |
| CCCCCCCCC(CCCCCC)COC(=O)CCCCCN(CCCCCC(=O)OCC(CCCCCC)CCCCCCCC)CCN1CCCC1 (stereo not drawn) [Compound 32] | 6.47 | 626 ± 299 ng luc/g liver | 12266 ± 192 ng luc/g liver | – |
| CC(C)=CCCC(C)CC(=O)OCCCCCCCCCCCCN(CCCCCCCCCCCCOC(=O)CC(C)CCC=C(C)C)CCN(C)C (stereo not drawn) [Compound 35] | 6.21 | 35 ± 15 ng luc/g liver | 101 ± 69 ng luc/g liver | – |
| CCCCCCCCCCCCC(CCCCCCCCCC)C(=O)OCCCCCCN(CCCCCCOC(=O)C(CCCCCCCCCC)CCCCCCCCCCCC)CCN(C)C (stereo not drawn) [Compound 39] | 5.82 | 36 ± 13 ng luc/g liver | 326 ± 81 ng luc/g liver | – |
| CCCCCCCCCCC(CCCCCCCC)C(=O)OCCCCCCCCCN(CCCCCCCCCOC(=O)C(CCCCCCCC)CCCCCCCCCC)CCN(C)C (stereo not drawn) [Compound 40] | 6.38 | 236 ± 71 ng luc/g liver | 1704 ± 571 ng luc/g liver | – |
| CCCCC/C=C\C/C=C\CCCCCCCCC(CCCCCCCC/C=C\C/C=C\CCCCC)OC(=O)CCCN(C)C [MC3, reference compound] | – | – | – | pKa ([1]; Table 5, in LNP, read-out: pKa): 6.09; Human Factor IX @ 0.3 mg/kg (ng mL in plasma) [3]: 336 ± 21 ng·mL; Human Factor IX @ 1.0 mg/kg (ng mL in plasma) [3]: 1154 ± 25 ng·mL |

More lines, main results first:

| pKa [1, 5] | SMILES | Liver Luc @ 0.3 mg/kg (ng luc/g liver) [2, 6] | Liver Luc @ 1.0 mg/kg (ng luc/g liver) [2, 6] | other results |
| --- | --- | --- | --- | --- |
| 6.28 | CCCCCCCCC(CCCCCC)C(=O)OCCCCCCN(CCCCCCOC(=O)C(CCCCCC)CCCCCCCC)CCN(C)C (stereo not drawn) [Compound 5] | 1571 ± 414 ng luc/g liver | 12900 ± 4083 ng luc/g liver | pKa ([1]; Table 5, in LNP): 6.28; Liver Luc @ 0.3 mg/kg (ng luc/g liver) [2, 7]: 1571 ± 414 ng luc/g liver; Liver Luc @ 1.0 mg/kg (ng luc/g liver) [2, 7]: 12900 ± 4083 ng luc/g liver; Human Factor IX @ 0.3 mg/kg (ng mL in plasma) [3]: 1097 ± 357 ng·mL; Human Factor IX @ 1.0 mg/kg (ng mL in plasma) [3]: 4556 ± 686 ng·mL; measured levels of hFIX expression (assessment) [3]: clinically relevant |
| 6.22 | CCCCCCC(CCCCCC)OC(=O)CCCCCCCCCN(CCCCCCCCCC(=O)OC(CCCCCC)CCCCCC)CCN(C)C [Compound 29] | 1303 ± 445 ng luc/g liver | 9750 ± 3519 ng luc/g liver | – |
| 6.27 | CCCCCCCCC(CCCCCC)COC(=O)CCCCCN(CCCCCC(=O)OCC(CCCCCC)CCCCCCCC)CCN(C)CC (stereo not drawn) [Compound 33] | 711 ± 272 ng luc/g liver | 4448 ± 512 ng luc/g liver | – |
| 6.24 | CCCCCCC(CCCC)C(=O)OCCCCCCCCCN(CCCCCCCCCOC(=O)C(CCCC)CCCCCC)CCN(C)C (stereo not drawn) [Compound 38] | 977 ± 336 ng luc/g liver | 7135 ± 1020 ng luc/g liver | – |
| 5.91 | CCCCCCCCCCCCC(CCCCCCCCCC)C(=O)OCCCCCCCCCN(CCCCCCCCCOC(=O)C(CCCCCCCCCC)CCCCCCCCCCCC)CCN(C)C (stereo not drawn) [Compound 41] | 63 ± 27 ng luc/g liver | 799 ± 619 ng luc/g liver | – |
